One test concerns A673. In words: Inhibition of cell proliferation of human A673 cells incubated for 72 hrs by CyQUANT assay. The class given is functional, cell-based. The settings on record: A673, 72 h.
For `FC(F)(F)c1cnc(N[C@H]2CCCNC2)nc1-c1n[nH]c2ccccc12`, the IC50 came to 20 nM. In other words, the double-digit nanomolar range. The same measure, in the same setting: under `Clc1cnc(N[C@@H]2CCCNC2)nc1-c1c[nH]c2ccccc12` stands 20 nM. On the same count and under the same terms, under `Clc1cnc(N[C@H]2CCCNC2)nc1-c1c[nH]c2ccccc12` stands not above 20 nM. The same measure, in the same setting: under `CNC(=O)[C@H]1CNC[C@H](Nc2ncc(C(F)(F)F)c(-c3c[nH]c4ccccc34)n2)C1` stands 20 nM. Compound `Clc1cnc(N[C@H]2CCCNC2)nc1-c1cn(-c2ccccc2)c2ccccc12` showed a 50% inhibitory concentration (IC50) of 200 nM. Same read-out and setting: under `O[C@@H]1CCNC[C@H]1Nc1ncc(Cl)c(-c2c[nH]c3ccccc23)n1` stands 200 nM. Consider `Cn1cc(-c2ccc3[nH]cc(-c4nc(N[C@H]5CCCNC5)ncc4C(F)(F)F)c3c2)cn1`, for which the IC50 turned out to be 200 nM. Still for that read-out and setting: under `CCc1cnc(N[C@H]2CCCNC2)nc1-c1c[nH]c2c(C)cccc12` stands 20 nM; under `COCCn1cc(-c2nc(N[C@H]3CCCNC3)ncc2C(F)(F)F)c2ccccc21`, 200 nM. Still for that read-out and setting: the value for `CC(=O)c1cccc2c(-c3nc(N[C@H]4CCCNC4)ncc3Cl)c[nH]c12` was less than 20 nM. In the case of `CCc1cnc(N[C@@H]2CCCNC2)nc1-c1n[nH]c2ncccc12`, the half-maximal inhibitory concentration (IC50) worked out at 20 nM. Regarding `Fc1cccc2c(-c3nc(N[C@H]4CCCNC4)ncc3Cl)n[nH]c12`, the IC50 was less than 20 nM. On to `FC(F)(F)c1cnc(N[C@H]2CNC[C@@H](c3nnc4ccccn34)C2)nc1-c1c[nH]c2ccccc12`, for which the IC50 was 200 nM. This lies in the sub-micromolar range. The same measure, in the same setting: under `CCc1cnc(N[C@H]2CCCNC2)nc1-c1c[nH]c2ncc(F)cc12` stands 200 nM. Same read-out and setting: the value for `Cc1[nH]c2ccccc2c1-c1nc(N[C@H]2CCCNC2)ncc1Cl` was 20 nM.

Take `FC(F)(F)c1cnc(N[C@H]2CCCNC2)nc1-c1c[nH]c2cc(-c3cn[nH]c3)ccc12`: it took 20 nM to reach half-maximal inhibition (IC50). That is a double-digit nanomolar value. Still for that read-out and setting: under `CCOP(=O)(OCC)c1ccc2[nH]cc(-c3nc(N[C@H]4CCCNC4)ncc3C(F)(F)F)c2c1` stands 200 nM; under `FC(F)(F)c1cnc(N[C@H]2CCCNC2)nc1-c1c[nH]c2ccc(Cl)cc12`, less than 20 nM. The same measure, in the same setting: under `Cc1cccc2c(-c3nc(N[C@H]4CCCNC4)ncc3F)c[nH]c12` stands 200 nM.

Compound `C[C@H]1CCNC[C@@H]1Nc1ncc(Cl)c(-c2c[nH]c3ccccc23)n1` registered a concentration for half-maximal inhibition (IC50) of 200 nM. As for `C[C@H](O)c1cnc(N[C@H]2CCCNC2)nc1-c1c[nH]c2ccccc12`, the concentration for half-maximal inhibition (IC50) was 200 nM. The compound `N#Cc1cccc2c(-c3nc(N[C@H]4CCCNC4)ncc3C(F)(F)F)c[nH]c12` returned an IC50 of less than 20 nM. On the same count and under the same terms, the value for `C[C@@H]1CNC[C@@H](Nc2ncc(Cl)c(-c3c[nH]c4ccccc34)n2)C1` was 20 nM; that for `Clc1cnc(NC2(c3ccccc3)CCCNC2)nc1-c1c[nH]c2ccccc12` (stereo not drawn) was 200 nM. As to `CC1(C)CCNC[C@H]1Nc1ncc(C(F)(F)F)c(-c2c[nH]c3ccccc23)n1`, half-maximal inhibition (IC50) was put at 200 nM. Same read-out and setting: under `Fc1cccc2c(-c3nc(N[C@H]4CCCNC4)ncc3C(F)(F)F)n[nH]c12` stands less than 20 nM. In turn, `F[C@@H]1CCNC[C@H]1Nc1ncc(Cl)c(-c2c[nH]c3ccccc23)n1` yielded an IC50 of 20 nM. For `Clc1cnc(N[C@H]2CCCNC2)nc1-c1c[nH]c2c(N3CCOCC3)cccc12`, the IC50 was 20 nM. Still for that read-out and setting: under `COCCn1cc(-c2nc(N[C@H]3CCCNC3)ncc2Cl)c2ccccc21` stands 200 nM. The same measure, in the same setting: the value for `CC1CCC(Nc2ncc(Cl)c(-c3c[nH]c4ccccc34)n2)CN1` (stereo not drawn) was 20 nM; that for `Clc1cnc(NC2CNCCC2c2ccccc2)nc1-c1c[nH]c2ccccc12` (stereo not drawn) was 200 nM; that for `Cc1ccc2[nH]cc(-c3nc(N[C@H]4CCCNC4)ncc3Cl)c2c1` was 200 nM. The same measure, in the same setting: the value for `CNC(=O)[C@@H]1CNC[C@@H](Nc2ncc(C(F)(F)F)c(-c3c[nH]c4ccccc34)n2)C1` was 200 nM; that for `Cn1cc(-c2ccc3c(-c4nc(N[C@H]5CCCNC5)ncc4C(F)(F)F)c[nH]c3c2)cn1` was less than 20 nM; that for `CNC(=O)[C@@H]1CNC[C@H](Nc2ncc(C(F)(F)F)c(-c3c[nH]c4ccccc34)n2)C1` was 20 nM. Consider `Cc1cnc(N[C@H]2CCCNC2)nc1-c1c[nH]c2ccccc12`, for which the IC50 came out at 20 nM. That is a double-digit nanomolar value.

For `CC(C)n1cc(-c2nc(N[C@H]3CCCNC3)ncc2Cl)c2ccccc21`, the 50% inhibitory concentration (IC50) is 200 nM.

Regarding `Cc1cccc2c(-c3nc(N[C@H]4CCCNC4)ncc3CC(C)C)c[nH]c12`, the IC50 came out at 200 nM. This lies in the sub-micromolar range.

The compound `FC(F)(F)c1cnc(N[C@H]2CCCNC2)nc1-c1c[nH]c2ccc(-c3cn[nH]c3)cc12` gave an IC50 of 200 nM.

In the case of `Clc1cnc(N[C@H]2CCCNC2)nc1-c1c[nH]c2ccncc12`, the IC50 worked out at 20 nM. For `FC(F)(F)c1cnc(N[C@H]2CCCNC2)nc1-c1c[nH]c2c(Cl)cccc12`, the IC50 is less than 20 nM. In turn, `CCc1cnc(N[C@H]2CCCNC2)nc1-c1n[nH]c2ccccc12` yielded a concentration for half-maximal inhibition (IC50) of 20 nM. The compound `O=C(O)c1cccc2c(-c3nc(N[C@H]4CCCNC4)ncc3Cl)c[nH]c12` gave an IC50 of 200 nM. The same measure, in the same setting: the value for `OC1CCC(c2cccc3c(-c4nc(N[C@H]5CCCNC5)ncc4C(F)(F)F)c[nH]c23)CC1` (stereo partly drawn) was less than 20 nM; that for `FC(F)(F)Cc1cnc(N[C@H]2CCCNC2)nc1-c1n[nH]c2ccccc12` was 20 nM; that for `Clc1cnc(N[C@H]2CCCNC2)nc1-c1c[nH]c2cccnc12` was 20 nM. On the same count and under the same terms, the value for `Clc1cnc(N[C@H]2CCCNC2)nc1-c1c[nH]c2ccc(N3CCOCC3)cc12` was 20 nM; that for `CC1NCCCC1Nc1ncc(Cl)c(-c2c[nH]c3ccccc23)n1` (stereo not drawn) was 20 nM; that for `CNC(=O)[C@H]1CNC[C@@H](Nc2ncc(C(F)(F)F)c(-c3c[nH]c4ccccc34)n2)C1` was 200 nM.

On to `CCOP(=O)(OCC)c1ccc2c(-c3nc(N[C@H]4CCCNC4)ncc3C(F)(F)F)c[nH]c2c1`, for which the 50% inhibitory concentration (IC50) stood at 20 nM. Same read-out and setting: the value for `O[C@H]1CC[C@@H](c2cccc3c(-c4nc(N[C@H]5CCCNC5)ncc4C(F)(F)F)c[nH]c32)CC1` was 200 nM; that for `CC1(Nc2ncc(Cl)c(-c3c[nH]c4ccccc34)n2)CCCNC1` (stereo not drawn) was 200 nM.

Take `CNC(=O)c1ccc2c(-c3nc(N[C@H]4CCCNC4)ncc3C(F)(F)F)c[nH]c2c1`: it took 20 nM to reach half-maximal inhibition (IC50). Against the preceding compound, the IC50 is about 10-fold lower. Same read-out and setting: the value for `N#Cc1ccc2[nH]cc(-c3nc(N[C@H]4CCCNC4)ncc3C(F)(F)F)c2c1` was 200 nM. The same measure, in the same setting: the value for `Fc1cc2[nH]nc(-c3nc(N[C@H]4CCCNC4)ncc3C(F)(F)F)c2cc1F` was less than 20 nM; that for `C[C@@H](O)c1cnc(N[C@H]2CCCNC2)nc1-c1c[nH]c2ccccc12` was 200 nM. `FC(F)(F)c1cnc(N[C@@H]2CNC[C@H](c3nnc4ccccn34)C2)nc1-c1c[nH]c2ccccc12`: the IC50 was not above 20 nM. As for `Brc1cnc(N[C@@H]2CCCNC2)nc1-c1c[nH]c2ccccc12`, the IC50 is less than 20 nM. `Cc1cccc2c(-c3nc(N[C@H]4CCCNC4)ncc3C(F)(F)F)c[nH]c12` displayed an IC50 of less than 20 nM. `CCc1cnc(N[C@H]2CCCNC2)nc1-c1c[nH]c2ccccc12`: half-maximal inhibition (IC50) required 20 nM. Still for that read-out and setting: under `CC1(C)CCNC[C@@H]1Nc1ncc(C(F)(F)F)c(-c2c[nH]c3ccccc23)n1` (single isomer, unassigned) stands 20 nM.

The next test concerns HCC70. Briefly: Inhibition of cell proliferation of human HCC70 cells incubated for 72 hrs by CyQUANT assay. The class given is functional, cell-based. The settings on record: HCC70, 72 h.
Compound `Fc1cncc(-c2ccc3c(-c4nc(N[C@H]5CCCNC5)ncc4C(F)(F)F)c[nH]c3c2)c1` registered a half-maximal inhibitory concentration (IC50) of 100 nM. This lies in the sub-micromolar range. In turn, `CNC(=O)c1cccc2c(-c3nc(N[C@H]4CCCNC4)ncc3C(F)(F)F)cn(C)c12` came in with a half-maximal inhibitory concentration (IC50) of 1000 nM.

As usually defined, the IC50 is the midpoint of a concentration-inhibition curve. A high value points to weaker potency.
